According to ChEMBL document CHEMBL1201862, “PubChem BioAssay data set” (2004):
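1) Cells in 96-well plates. 2) Compound, 48 h, 5 concentrations. 3) Linear interpolation between surrounding doses. 4) Unreached endpoint = highest concentration. The concentration for 50% growth inhibition is given as GI50.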 Activity calls are given as the source filed them. Rule as the data show it: active = GI50 up to about 1.1 µM and inactive = higher.

What was measured:
Experiment in all cases: NCI tumour cell line growth inhibition, 48 h
[1] = system: SK-MEL-28
[2] = system: COLO 205
[3] = system: PC-3
[4] = system: UACC-62
[5] = system: OVCAR-3
[6] = system: RXF 393
[7] = system: MDA-MB-231
[8] = system: NCI-H522
[9] = system: K562
[10] = system: CAKI-1
[11] = system: U-251
[12] = system: ACHN
[13] = system: SN12C
[14] = system: HT-29
[15] = system: Hs-578T
[16] = system: T47D
[17] = system: Malme-3M
[18] = system: DU-145
[19] = system: HCT-116
[20] = system: NCI-H460

SMILES | GI50 [1] | GI50 [2] | GI50 [3] | GI50 [4] | GI50 [5] | GI50 [6] | GI50 [7] | GI50 [8] | GI50 [9] | GI50 [10] | GI50 [11] | GI50 [12] | GI50 [13] | GI50 [14] | GI50 [15] | GI50 [16] | GI50 [17] | GI50 [18] | GI50 [19] | GI50 [20]
CCn1c(=O)c2c3ccc(OC)cc3[nH]c2c2ccc(OC)cc21 | 63.1 µM (inactive) | 39.4 µM (inactive) | 39.2 µM (inactive) | 63.2 µM (inactive) | 37.5 µM (inactive) | 29.3 µM (inactive) | 57 µM (inactive) | 56.1 µM (inactive) | 25.7 µM (inactive) | 55.2 µM (inactive) | > 100 µM (inactive) | 55.5 µM (inactive) | > 100 µM (inactive) | 38.3 µM (inactive) | 40.7 µM (inactive) | 24.6 µM (inactive) | 61 µM (inactive) | 43.9 µM (inactive) | 30.2 µM (inactive) | –
N#CC(NNC(=O)c1ccccc1O)c1c(O)ccc2ccccc12 (stereo not given) | 9.33 µM (inactive) | 13.2 µM (inactive) | 4.03 µM (inactive) | 2.61 µM (inactive) | 2.54 µM (inactive) | 2.75 µM (inactive) | 3.2 µM (inactive) | 4.42 µM (inactive) | 2.9 µM (inactive) | 4.18 µM (inactive) | 3.79 µM (inactive) | 5.04 µM (inactive) | 7.64 µM (inactive) | 20.3 µM (inactive) | 17.3 µM (inactive) | 2.96 µM (inactive) | 6.27 µM (inactive) | 2.54 µM (inactive) | 2.84 µM (inactive) | 2.99 µM (inactive)
O=C(CC1C=CCS1(=O)=O)NCc1ccccc1 (stereo not given) | > 100 µM (inactive) | > 100 µM (inactive) | > 100 µM (inactive) | > 100 µM (inactive) | > 100 µM (inactive) | > 100 µM (inactive) | > 100 µM (inactive) | > 100 µM (inactive) | > 100 µM (inactive) | > 100 µM (inactive) | > 100 µM (inactive) | > 100 µM (inactive) | > 100 µM (inactive) | > 100 µM (inactive) | > 100 µM (inactive) | > 100 µM (inactive) | – | > 100 µM (inactive) | > 100 µM (inactive) | > 100 µM (inactive)
Cc1nc2ccc(F)cc2c2c1CCS2 | 80.5 µM (inactive) | 38.5 µM (inactive) | 41.1 µM (inactive) | 81.7 µM (inactive) | 45.9 µM (inactive) | 18.5 µM (inactive) | 39.9 µM (inactive) | 75.5 µM (inactive) | 34.6 µM (inactive) | – | 50.4 µM (inactive) | 73.6 µM (inactive) | – | 71.8 µM (inactive) | 43 µM (inactive) | 33.7 µM (inactive) | 84.5 µM (inactive) | > 100 µM (inactive) | 46.6 µM (inactive) | 48.2 µM (inactive)
CCOC(=O)c1nc2ccc(C(F)(F)F)cc2nc1Nc1cc(OC)c(OC)c(OC)c1 | > 100 µM (inactive) | > 100 µM (inactive) | > 100 µM (inactive) | > 100 µM (inactive) | > 100 µM (inactive) | > 100 µM (inactive) | > 100 µM (inactive) | > 100 µM (inactive) | > 100 µM (inactive) | – | – | > 100 µM (inactive) | > 100 µM (inactive) | > 100 µM (inactive) | > 100 µM (inactive) | > 100 µM (inactive) | > 100 µM (inactive) | > 100 µM (inactive) | > 100 µM (inactive) | > 100 µM (inactive)
CC(C)C[C@H](NC(=O)[C@H](Cc1cccc2ccccc12)NS(=O)(=O)c1cccc2cccnc12)B(O)O | – | < 0.0243 µM (active) | < 0.0272 µM (active) | 0.0223 µM (active) | < 0.0111 µM (active) | < 0.015 µM (active) | < 0.0149 µM (active) | 0.0106 µM (active) | < 0.0196 µM (active) | 0.0923 µM (active) | 0.0264 µM (active) | 0.0327 µM (active) | < 0.0122 µM (active) | < 0.0165 µM (active) | < 0.0199 µM (active) | < 0.01 µM (active) | < 0.01 µM (active) | 0.0445 µM (active) | < 0.0133 µM (active) | 0.0893 µM (active)
NC(=S)NNCC(=O)CC(O)(C(F)(F)F)C(F)(F)Cl (stereo not given) | > 100 µM (inactive) | > 100 µM (inactive) | > 100 µM (inactive) | > 100 µM (inactive) | > 100 µM (inactive) | 38.5 µM (inactive) | > 100 µM (inactive) | > 100 µM (inactive) | > 100 µM (inactive) | > 100 µM (inactive) | > 100 µM (inactive) | 54.5 µM (inactive) | – | > 100 µM (inactive) | > 100 µM (inactive) | 64.7 µM (inactive) | > 100 µM (inactive) | > 100 µM (inactive) | > 100 µM (inactive) | 63.2 µM (inactive)
COc1ccc(N2C(=O)C3c4[nH]c5ccc(C)cc5c4C4CCC(C(C)(C)C)CC4C3C2=O)cc1 (stereo not given) | 11.5 µM (inactive) | 18.4 µM (inactive) | 24.1 µM (inactive) | 7.93 µM (inactive) | 10 µM (inactive) | 16.9 µM (inactive) | 35.9 µM (inactive) | 25.6 µM (inactive) | 13.4 µM (inactive) | 10.3 µM (inactive) | 3.85 µM (inactive) | 7.64 µM (inactive) | 48.4 µM (inactive) | 12.7 µM (inactive) | 3.64 µM (inactive) | 35.2 µM (inactive) | – | > 100 µM (inactive) | 7.66 µM (inactive) | 6.22 µM (inactive)
CCN(CC)CCN1C=CC(C)C(C(=O)O)C1C(N)=O (stereo not given) | > 100 µM (inactive) | > 100 µM (inactive) | > 100 µM (inactive) | > 100 µM (inactive) | > 100 µM (inactive) | > 100 µM (inactive) | > 100 µM (inactive) | > 100 µM (inactive) | > 100 µM (inactive) | > 100 µM (inactive) | > 100 µM (inactive) | > 100 µM (inactive) | > 100 µM (inactive) | > 100 µM (inactive) | > 100 µM (inactive) | > 100 µM (inactive) | – | > 100 µM (inactive) | > 100 µM (inactive) | > 100 µM (inactive)
COc1ccc(/C=N\NC(=O)Nc2cccc3ccccc23)cc1 | > 100 µM (inactive) | > 100 µM (inactive) | 20.8 µM (inactive) | – | – | > 10 µM (inactive) | 20.5 µM (inactive) | 15.6 µM (inactive) | – | 13.7 µM (inactive) | 13.9 µM (inactive) | 14.5 µM (inactive) | 49.3 µM (inactive) | 8.97 µM (inactive) | 6.75 µM (inactive) | 14.1 µM (inactive) | 26.2 µM (inactive) | 38.5 µM (inactive) | 13.7 µM (inactive) | 10 µM (inactive)
N#CC1=C(N)N(/N=C/c2ccco2)C(c2ccco2)C1(C#N)C#N (stereo not given) | – | 14.2 µM (inactive) | 23 µM (inactive) | 17.6 µM (inactive) | 18.2 µM (inactive) | 10.7 µM (inactive) | 19.5 µM (inactive) | 15.3 µM (inactive) | 5.7 µM (inactive) | 15.2 µM (inactive) | 18.9 µM (inactive) | 15.6 µM (inactive) | 26.9 µM (inactive) | 14.2 µM (inactive) | 22.2 µM (inactive) | 12.4 µM (inactive) | 18.9 µM (inactive) | 17.7 µM (inactive) | 12.7 µM (inactive) | –
